Patent publication US20080176813A1, “CARBOCYCLIC NUCLEOSIDES AND PROCESS FOR OBTAINING SUCH” (STICHTING REGA VZW, priority 1999, published 2008)
Converted amounts (≈) assume the structure as drawn. Read-outs that look alike come from different tables or passages of the source.

Assays:
VZV (YS) = assay: Antiviral activity, virus plaque formation in HEL cells; type: cell-based, varicella-zoster virus; conditions: for Selectivity index: HEL
Protocol: (§1) The anti-herpesvirus activity of D-cyclohexene G and L-cyclohexene G and the respective adenine analogues was determined in human embryonic skin muscle fibroblast (E6SM: HSV-1, HSV-2) and in human embryonic lung (HEL) cells [varicella-zoster virus (VZV), cytomegalovirus (CMV)] (Table I).

HSV-2 (Lyons) = assay: Antiviral activity, virus-induced cytopathogenicity in E6SM cell cultures; type: cell-based; conditions: for IC50: Human alphaherpesvirus 2, read-out: Activity: minimum inhibitory concentration required to reduce virus-induced cytopathogenicity by 50% (IC50), E6SM cell cultures; for Selectivity index: E6SM
Protocol: as §1

HSV-2 (G) = assay: as above; type: cell-based; conditions: for IC50: Human alphaherpesvirus 2, read-out: Activity: minimum inhibitory concentration required to reduce virus-induced cytopathogenicity by 50% (IC50), E6SM cell cultures; for Selectivity index: E6SM
Protocol: as §1

HSV-1 (F) = assay: as above; type: cell-based; conditions: for IC50: Human alphaherpesvirus 1, read-out: Activity: minimum inhibitory concentration required to reduce virus-induced cytopathogenicity by 50% (IC50), E6SM cell cultures; for Selectivity index: E6SM
Protocol: as §1

HSV-2 (196) = assay: as above; type: cell-based; conditions: for IC50: Human alphaherpesvirus 2, read-out: Activity: minimum inhibitory concentration required to reduce virus-induced cytopathogenicity by 50% (IC50), E6SM cell cultures; for Selectivity index: E6SM
Protocol: as §1

HSV-1 (KOS) = assay: as above; type: cell-based; conditions: for IC50: Human alphaherpesvirus 1, read-out: Activity: minimum inhibitory concentration required to reduce virus-induced cytopathogenicity by 50% (IC50), E6SM cell cultures; for Selectivity index: E6SM
Protocol: as §1

HSV-1 (TK−KOS ACVf) = assay: as above; type: cell-based; conditions: for IC50: Human alphaherpesvirus 1, E6SM, read-out: Activity: minimum inhibitory concentration required to reduce virus-induced cytopathogenicity by 50% (IC50); for Selectivity index: HSV-1 (TK−KOS ACVf), E6SM
Protocol: as §1

HSV-1 (McIntyre) = assay: as above; type: cell-based; conditions: for IC50: Human alphaherpesvirus 1, read-out: Activity: minimum inhibitory concentration required to reduce virus-induced cytopathogenicity by 50% (IC50), E6SM cell cultures; for Selectivity index: E6SM
Protocol: as §1

HSV-1 (TK−/TKf VMW1837) = assay: as above; type: cell-based; conditions: for IC50: Human alphaherpesvirus 1, E6SM, read-out: Activity: minimum inhibitory concentration required to reduce virus-induced cytopathogenicity by 50% (IC50); for Selectivity index: HSV-1 (TK−/TKf VMW1837), E6SM
Protocol: as §1

Vero = assay: Cytotoxicity, alteration of cell morphology; type: cell-based
HEL [1] = assay: Cytotoxicity, HEL (footnote c not given); conditions: HEL (footnote c, not defined)
Protocol: as §1

VZV (TK−YS/R) = assay: microbe, parasite or virus in culture; type: cell-based, varicella-zoster virus; conditions: for IC50: Human alphaherpesvirus 3, HEL, read-out: Activity: inhibitory concentration required to reduce virus plaque formation by 50% (IC50); for Selectivity index: VZV (TK−YS/R), HEL
Protocol: as §1

VZV (TK−07/1) = assay: microbe, parasite or virus in culture; type: cell-based, varicella-zoster virus; conditions: for IC50: Human alphaherpesvirus 3, HEL, read-out: Activity: inhibitory concentration required to reduce virus plaque formation by 50% (IC50); for Selectivity index: VZV (TK−07/1), HEL
Protocol: as §1

VZV (OKA) = assay: microbe, parasite or virus in culture; type: cell-based, varicella-zoster virus; conditions: for IC50: Human alphaherpesvirus 3, HEL, read-out: Activity: inhibitory concentration required to reduce virus plaque formation by 50% (IC50); for Selectivity index: VZV (OKA), HEL
Protocol: as §1

HeLa = assay: Cytotoxicity, alteration of cell morphology; type: cell-based
HEL [2] = assay: Cytotoxicity, cell growth; conditions: HEL (footnote b)
[3] = Cytotoxicity, alteration of cell morphology
Protocol: as §1

CMV (AD 169) = assay: Antiviral activity, virus plaque formation in HEL cells; type: cell-based, cytomegalovirus; conditions: for IC50: Human betaherpesvirus 5, read-out: Activity: inhibitory concentration required to reduce virus plaque formation by 50% (IC50), HEL cells, virus input 20 PFU; for Selectivity index: HEL
Protocol: as §1

CMV (Davis) = assay: as above; type: cell-based, cytomegalovirus; conditions: for IC50: Human betaherpesvirus 5, read-out: Activity: inhibitory concentration required to reduce virus plaque formation by 50% (IC50), HEL cells, virus input 20 PFU; for Selectivity index: HEL
Protocol: as §1

VZV and CMV = assay: Potency against VZV and CMV; type: cell-based
Protocol: as §1

[4] = Human alphaherpesvirus 3, read-out: Activity: inhibitory concentration required to reduce virus plaque formation by 50% (IC50), VZV (YS), HEL cells, virus input 20 PFU

SMILES | IC50 (VZV (YS); [4]) [µg/mL] | IC50 (HSV-2 (Lyons)) [µg/mL] | IC50 (HSV-2 (G)) [µg/mL] | IC50 (HSV-1 (F)) [µg/mL] | IC50 (HSV-2 (196)) [µg/mL] | IC50 (HSV-1 (KOS)) [µg/mL] | IC50 (HSV-1 (TK−KOS ACVf)) [µg/mL] | IC50 (HSV-1 (McIntyre)) [µg/mL] | IC50 (HSV-1 (TK−/TKf VMW1837)) [µg/mL] | Minimum cytotoxic concentration causing a microscopically detectable alteration of cell morphology (Vero) | Cytotoxicity (concentration) (HEL [1]) [µg/mL] | IC50 (VZV (TK−YS/R)) [µg/mL] | IC50 (VZV (TK−07/1)) [µg/mL] | IC50 (VZV (OKA)) [µg/mL] | Minimum cytotoxic concentration causing a microscopically detectable alteration of cell morphology (HeLa) | Cytotoxic concentration required to reduce cell growth by 50% (HEL [2]) [µg/mL] | Minimum cytotoxic concentration causing a microscopically detectable alteration of cell morphology ([3]; E8SM) | IC50 (CMV (AD 169)) [µg/mL] | IC50 (CMV (Davis)) [µg/mL] | other results
Nc1nc2c(ncn2COCCO)c(=O)[nH]1 [Acyclovir, reference compound] | 1.1 (≈ 4.88 µM) | 0.02 (≈ 0.0888 µM) | 0.02 (≈ 0.0888 µM) | 0.003 (≈ 0.0133 µM) | 0.02 (≈ 0.0888 µM) | 0.01 (≈ 0.0444 µM) | 9.6 (≈ 42.6 µM) | 0.005 (≈ 0.0222 µM) | 0.07 (≈ 0.311 µM) | – | – | – | – | – | – | – | – | – | – | –
O=c1[nH]c(=O)n([C@H]2C[C@H](O)[C@@H](CO)O2)cc1/C=C/Br [Brivudin, reference compound] | – | > 80 | > 80 | 0.001 (≈ 0.003 µM) | > 80 | 0.001 (≈ 0.003 µM) | > 80 | 0.001 (≈ 0.003 µM) | > 80 | ≧400 μg/ml | >200 | > 50 | > 20 | 0.003 (≈ 0.00901 µM) | ≧400 μg/ml | >50 | ≧400 μg/ml | – | – | IC50 (VZV (YS); Human alphaherpesvirus 3, HEL, read-out: Activity: inhibitory concentration required to reduce virus plaque formation by 50% (IC50)): 0.03 µg/mL (≈ 0.0901 µM)
Nc1ccn(C[C@@H](CO)OCP(=O)(O)O)c(=O)n1 [Cidolovir, reference compound] | – | – | – | – | – | – | – | – | – | – | >50 | – | – | – | – | >50 | – | 0.08 (≈ 0.287 µM) | 0.2 (≈ 0.716 µM) | –
Nc1ncnc2c1ncn2[C@@H]1C=C[C@H](CO)[C@@H](O)C1 [Compound 36, 9-[(1S,4R,5S)-5-Hydroxy-4-hydroxymethyl-2-cyclohexenyl]adenine] | – | – | – | – | – | – | – | – | – | – | – | – | – | – | – | – | – | – | – | melting point: 90 to 92 °C
Nc1nc2c(ncn2[C@@H]2C=C[C@H](CO)[C@@H](O)C2)c(=O)[nH]1 [D-cyclohexenyl G, 9-[(1S,4R,5S)-5-hydroxy-4-hydroxymethyl-2-cyclohexenyl]guanine] | 0.49 (≈ 1.77 µM) | 0.07 (≈ 0.252 µM) | 0.05 (≈ 0.18 µM) | 0.002 (≈ 0.00721 µM) | 0.07 (≈ 0.252 µM) | 0.002 (≈ 0.00721 µM) | 0.38 (≈ 1.37 µM) | 0.004 (≈ 0.0144 µM) | 0.01 (≈ 0.0361 µM) | 400 μg/ml | 11 | 2.8 (≈ 10.1 µM) | 2.1 (≈ 7.57 µM) | 0.64 (≈ 2.31 µM) | 400 μg/ml | >20 | >400 μg/ml | 0.6 (≈ 2.16 µM) | 0.8 (≈ 2.89 µM) | Selectivity index (CMV (AD 169)): >30; Selectivity index (CMV (Davis)): >25; Selectivity index (VZV (YS); VZV (YS)): >40; Toxicity in four different cell lines (HeLa, Vero, E6SM, HEL): did not show toxicity; Selectivity index (VZV (TK−YS/R)): >7; Selectivity index (VZV (TK−07/1)): >10; Selectivity index (VZV (OKA)): >30; Selectivity index (HSV-2 (Lyons)): >5.10^3; Selectivity index (HSV-2 (G)): >8.10^3; Selectivity index (HSV-1 (F)): >2.10^5; Selectivity index (HSV-2 (196)): >5.10^3; Selectivity index (HSV-1 (KOS)): >2.10^5; Selectivity index (HSV-1 (TK−KOS ACVf)): >1.10^3; Selectivity index (HSV-1 (McIntyre)): >1.10^5; Selectivity index (HSV-1 (TK−/TKf VMW1837)): >4.10^4
Nc1nc(O)c2ncn(COC(CO)CO)c2n1 [Ganciclovir, reference compound] | – | 0.001 (≈ 0.00392 µM) | 0.002 (≈ 0.00784 µM) | 0.001 (≈ 0.00392 µM) | 0.001 (≈ 0.00392 µM) | 0.001 (≈ 0.00392 µM) | 0.48 (≈ 1.88 µM) | 0.001 (≈ 0.00392 µM) | 0.01 (≈ 0.0392 µM) | – | >50 | – | – | – | – | >50 | – | 0.6 (≈ 2.35 µM) | 0.8 (≈ 3.13 µM) | Minimum cytotoxic concentration causing a microscopically detectable alteration of cell morphology ([3]; human): >100 μg/ml
Nc1nc2c(ncn2[C@H]2C=C[C@@H](CO)[C@H](O)C2)c(=O)[nH]1 [L-cyclohexenyl G, 9-[(1R,4S,5R)-5-Hydroxy-4-hydroxymethyl-2-cyclohexenyl]guanine] | 1.2 (≈ 4.33 µM) | 0.07 (≈ 0.252 µM) | 0.07 (≈ 0.252 µM) | 0.003 (≈ 0.0108 µM) | 0.1 (≈ 0.361 µM) | 0.003 (≈ 0.0108 µM) | 1.28 (≈ 4.62 µM) | 0.004 (≈ 0.0144 µM) | 0.01 (≈ 0.0361 µM) | 400 μg/ml | >20 | 6.8 (≈ 24.5 µM) | 5.8 (≈ 20.9 µM) | 1.9 (≈ 6.85 µM) | 400 μg/ml | >20 | >18 μg/ml | 1.5 (≈ 5.41 µM) | 1.7 (≈ 6.13 µM) | Selectivity index (CMV (AD 169)): >13; Selectivity index (CMV (Davis)): >12; melting point: 255 °C (dec.); Selectivity index (VZV (YS); VZV (YS)): >16; Toxicity in four different cell lines (HeLa, Vero, E6SM, HEL): did not show toxicity; Selectivity index (VZV (TK−YS/R)): >3; Selectivity index (VZV (TK−07/1)): >3; Selectivity index (VZV (OKA)): >10; Potency relative to D-cyclohexene G (fold lower) (VZV and CMV): about 2 fold; Selectivity index (HSV-2 (Lyons)): >2.2 10^2; Selectivity index (HSV-2 (G)): >2.2 10^2; Selectivity index (HSV-1 (F)): >5.10^3; Selectivity index (HSV-2 (196)): >1.6 10^2; Selectivity index (HSV-1 (KOS)): >5.10^3; Selectivity index (HSV-1 (TK−KOS ACVf)): >12; Selectivity index (HSV-1 (McIntyre)): >4.10^3; Selectivity index (HSV-1 (TK−/TKf VMW1837)): >1.6 10^3
